Values quoted from earlier work, collected in patent US8673356B2, “Stable fixed dose topical formulation” (Glenmark Pharmaceuticals Limited, priority 2008, dated 2014).

Key:
[1] = converted in vivo by hydrolysis to active clindamycin

CCC[C@@H]1C[C@@H](C(=O)NC(C2O[C@H](SC)[C@H](OP(=O)(O)O)[C@@H](O)[C@H]2O)[C@H](C)Cl)N(C)C1 (stereo partly drawn) [Clindamycin phosphate, methyl 7-chloro-6,7,8-trideoxy-6-(1-methyl-trans-4-propyl-L-2-pyrrolidinecarboxamido)-1-thio-L-threo-D-galactooctopyranoside 2-(dihydrogen phosphate)]
Solubility in water: water soluble
Activity in vitro [1]: inactive

COc1ccc(-c2ccc3cc(C(=O)O)ccc3c2)cc1C12CC3CC(CC(C3)C1)C2 [Adapalene, 6-[3-(1-adamantyl)-4-methoxyphenyl]-2-naphthoic acid]
Solubility in ethanol (ethanol): very slightly soluble
Solubility in tetrahydrofuran (tetrahydrofuran): soluble
Solubility in water: practically insoluble
